From patent US9024027B2, “Derivatives of 1-phenyl-2-pyridinyl alkyl alcohols as phosphodiesterase inhibitors” (Chiesi Farmaceutici S.p.A., priority 2011, dated 2015) come the findings set out here.

The structures appear in SMILES notation. pIC50: −log10 of the molar value. Structures can show the parent of a compound that is named as a salt. Bounds are passed on as bounds.

For the experiment, the system named is LPS-induced TNF-α release in peripheral blood mononuclear cells (PBMCs). Briefly: In vitro determination of PDE4 inhibitory activity in the PBMCs assay (LPS-induced TNF-α release). It counts as cell-based. The note with it: PBMC; human PBMCs, LPS 3 ng/ml, 18 hours; read-out: PDE4 inhibition (IC50, 50% inhibition of LPS-induced TNF-α release). The procedure: The assay, which is based on the known inhibitory activity exerted by PDE4 inhibitors on the lipopolyshaccarides (LPS)-induced tumour necrosis factor-alpha (TNF-α release in peripheral blood mononuclear cells (PBMCs), was performed according to a method previously described (Hatzelmann A et al., J. Pharmacol. Exp. Ther., 2001; 297:267-279; and Draheim R et al., J. Pharmacol. Exp. Ther., 2004; 308:555-563, both of which are incorporated herein by reference in their entireties. Cryopreserved human PBMCs, (100 μl/well) were incubated in 96-well plates (10^5 cells/well), for 30 minutes, in the presence or absence (50 microl) of the test compounds whose concentrations ranged from 10^−12 M to 10^−6 M or from 10^−13 M to 10^−7 M. Subsequently, LPS (3 ng/ml) was added. After 18 hours of incubation at 37° C. in a humidified incubator under an atmosphere of 95% air and 5% CO2, culture medium was collected and TNF-α measured by ELISA.
The results of the tested compounds, representatives of the invention, expressed as mean±95% confidence limits of the molar concentration of the test compound producing 50% inhibition of LPS-induced TNF-α release (IC50) are shown in the following Table: […]
In general, pIC50 refers to −log10 of the IC50, conventionally taken in molar units. `O=C(Cn1c(=O)c(=O)n(CCN2CCOCC2)c2ccccc21)O[C@@H](Cc1c(Cl)c[n+]([O-])cc1Cl)c1ccc(OC(F)F)c(OCC2CC2)c1` [Compound 37, (S)-3,5-dichloro-4-(2-(3-(cyclopropylmethoxy)-4-(difluoromethoxy)phenyl)-2-(2-(4-(2-morpholinoethyl)-2,3-dioxo-3,4-dihydroquinoxalin-1(2H)-yl)acetoxy)ethyl)pyridine 1-oxide]: the pIC50 is more than 9.00.

Take `O=C(CN1C(=O)Cc2ccccc2C1=O)O[C@@H](Cc1c(Cl)c[n+]([O-])cc1Cl)c1ccc(OC(F)F)c(OCC2CC2)c1` [Compound 263, (S)-3,5-dichloro-4-(2-(3-(cyclopropylmethoxy)-4-(difluoromethoxy)phenyl)-2-(2-(1,3-dioxo-3,4-dihydroisoquinolin-2(1H)-yl)acetoxy)ethyl)pyridine 1-oxide]: the pIC50 is 8.00 to 9.00. The figure for `O=C(CN1C(=O)C(=O)c2cc([N+](=O)[O-])ccc21)O[C@@H](Cc1c(Cl)c[n+]([O-])cc1Cl)c1ccc(OC(F)F)c(OCC2CC2)c1` [Compound 26] is less than 8.00. The figure for `COc1ccnc(CN(c2ccc3c(c2)C(=O)N(CC(=O)O[C@@H](Cc2c(Cl)c[n+]([O-])cc2Cl)c2ccc(OC(F)F)c(OCC4CC4)c2)C3=O)S(C)(=O)=O)c1` [Compound 194] is 8.00 to 9.00. With `O=C(Cn1ccc2cc(O)ccc21)O[C@@H](Cc1c(Cl)c[n+]([O-])cc1Cl)c1ccc(OC(F)F)c(OCC2CC2)c1` [Compound 42, (S)-3,5-dichloro-4-(2-(3-(cyclopropylmethoxy)-4-(difluoromethoxy)phenyl)-2-(2-(5-hydroxy-1H-indol-1-yl)acetoxy)ethyl)pyridine 1-oxide], the pIC50 is more than 9.00. With `O=C(Cn1c(=O)n(CCN2CCOCC2)c(=O)c2ccccc21)O[C@@H](Cc1c(Cl)c[n+]([O-])cc1Cl)c1ccc(OC(F)F)c(OCC2CC2)c1` [Compound 38], the pIC50 was more than 9.00.

On to `O=C(Cn1c(=O)c2ccccc2n(CCN2CCOCC2)c1=O)O[C@@H](Cc1c(Cl)c[n+]([O-])cc1Cl)c1ccc(OC(F)F)c(OCC2CC2)c1` [Compound 39], for which the pIC50 is more than 9.00. The figure for `CC1(C)c2ccccc2S(=O)(=O)N1CC(=O)O[C@@H](Cc1c(Cl)c[n+]([O-])cc1Cl)c1ccc(OC(F)F)c(OCC2CC2)c1` [Compound 35, (S)-3,5-dichloro-4-(2-(3-(cyclopropylmethoxy)-4-(difluoromethoxy)phenyl)-2-(2-(3,3-dimethyl-1,1-dioxidobenzo[d]isothiazol-2(3H)-yl)acetoxy)ethyl)pyridine 1-oxide] is 8.00 to 9.00. The value for `CS(=O)(=O)N(CCN1CCSCC1)c1ccc2c(c1)C(=O)N(CC(=O)O[C@@H](Cc1c(Cl)c[n+]([O-])cc1Cl)c1ccc(OC(F)F)c(OCC3CC3)c1)C2=O` [Compound 215] was more than 9.00; that for `CS(=O)(=O)N(CCN1CCOCC1)c1ccc2c(ccn2CC(=O)O[C@@H](Cc2c(Cl)c[n+]([O-])cc2Cl)c2ccc(OC(F)F)c(OCC3CC3)c2)c1` [Compound 230, (S)-3,5-dichloro-4-(2-(3-(cyclopropylmethoxy)-4-(difluoromethoxy)phenyl)-2-(2-(5-(N-(2-morpholinoethyl)methylsulfonamido)-1H-indol-1-yl)acetoxy)ethyl)pyridine 1-oxide hydrochloride] was more than 9.00. Consider `O=C(CN1C(=O)c2cc(Cl)c(Cl)cc2C1=O)O[C@@H](Cc1c(Cl)c[n+]([O-])cc1Cl)c1ccc(OC(F)F)c(OCC2CC2)c1` [Compound 19], for which the negative logarithm of the IC50 (pIC50) is more than 9.00. Regarding `O=C(CN1C(=O)c2ccccc2S1(=O)=O)O[C@@H](Cc1c(Cl)c[n+]([O-])cc1Cl)c1ccc(OC(F)F)c(OCC2CC2)c1` [Compound 102, (S)-3,5-dichloro-4-(2-(3-(cyclopropylmethoxy)-4-(difluoromethoxy)phenyl)-2-(2-(1,1-dioxido-3-oxobenzo[d]isothiazol-2(3H)-yl)acetoxy)ethyl)pyridine 1-oxide], the pIC50 is more than 9.00. The value for `O=C(CN1C(=O)c2ccccc2C1=O)O[C@@H](Cc1c(Cl)c[n+]([O-])cc1Cl)c1ccc(OC(F)F)c(OC2CCOC2)c1` (stereo partly drawn) [Compound 261, 3,5-dichloro-4-((2S)-2-(4-(difluoromethoxy)-3-(tetrahydrofuran-3-yloxy)phenyl)-2-(2-(1,3-dioxoisoindolin-2-yl)acetoxy)-ethyl)pyridine 1-oxide] was more than 9.00; that for `O=C(Cn1c(=O)c2ccccc2c(=O)n1CCN1CCOCC1)O[C@@H](Cc1c(Cl)c[n+]([O-])cc1Cl)c1ccc(OC(F)F)c(OCC2CC2)c1` [Compound 40] was 8.00 to 9.00; that for `Nc1cccc2c1C(=O)N(CC(=O)O[C@@H](Cc1c(Cl)c[n+]([O-])cc1Cl)c1ccc(OC(F)F)c(OCC3CC3)c1)C2=O` [Compound 12, (S)-4-(2-(2-(4-amino-1,3-dioxoisoindolin-2-yl)acetoxy)-2-(3-(cyclopropylmethoxy)-4-(difluoromethoxy)phenyl)ethyl)-3,5-dichloropyridine 1-oxide] was more than 9.00. Regarding `Cn1cnc2c1c(=O)n(CC(=O)O[C@@H](Cc1c(Cl)c[n+]([O-])cc1Cl)c1ccc(OC(F)F)c(OCC3CC3)c1)c(=O)n2C` [Compound 20], the pIC50 is more than 9.00. Regarding `COc1cc2c(cc1OC)C(=O)N(CC(=O)O[C@@H](Cc1c(Cl)c[n+]([O-])cc1Cl)c1ccc(OC(F)F)c(OCC3CC3)c1)C2=O` [Compound 156, (S)-3,5-dichloro-4-(2-(3-(cyclopropylmethoxy)-4-(difluoromethoxy)phenyl)-2-(2-(5,6-dimethoxy-1,3-dioxoisoindolin-2-yl)acetoxy)ethyl)pyridine 1-oxide], the pIC50 was more than 9.00. For the molecule `O=C(Cn1cnc2ccccc21)O[C@@H](Cc1c(Cl)c[n+]([O-])cc1Cl)c1ccc(OC(F)F)c(OCC2CC2)c1` [Compound 22], the pIC50 was 8.00 to 9.00. As to `CC(C(=O)OC(Cc1c(Cl)c[n+]([O-])cc1Cl)c1ccc(OC(F)F)c(OCC2CC2)c1)N1C(=O)c2ccccc2C1=O` (stereo not shown) [Compound 18], the pIC50 is more than 9.00. In the case of `COc1cccc2c1C(=O)N(CC(=O)O[C@@H](Cc1c(Cl)c[n+]([O-])cc1Cl)c1ccc(OC(F)F)c(OCC3CC3)c1)C2=O` [Compound 68, (S)-3,5-dichloro-4-(2-(3-(cyclopropylmethoxy)-4-(difluoromethoxy)phenyl)-2-(2-(4-methoxy-1,3-dioxoisoindolin-2-yl)acetoxy)-ethyl)pyridine 1-oxide], the pIC50 was more than 9.00. For the molecule `CS(=O)(=O)N(CCN1CCOCC1)Cc1ccc2c(c1)C(=O)N(CC(=O)O[C@@H](Cc1c(Cl)c[n+]([O-])cc1Cl)c1ccc(OC(F)F)c(OCC3CC3)c1)C2=O` [Compound 258, (S)-3,5-dichloro-4-(2-(3-(cyclopropylmethoxy)-4-(difluoromethoxy)phenyl)-2-(2-(5-((N-(2-morpholinoethyl)methylsulfonamido)methyl)-1,3-dioxoisoindolin-2-yl)acetoxy)ethyl)pyridine 1-oxide], the pIC50 is more than 9.00. For the molecule `CS(=O)(=O)N(CCN1CCOCC1)c1cccc2c1ccn2CC(=O)O[C@@H](Cc1c(Cl)c[n+]([O-])cc1Cl)c1ccc(OC(F)F)c(OCC2CC2)c1` [Compound 233, (S)-3,5-dichloro-4-(2-(3-(cyclopropylmethoxy)-4-(difluoromethoxy)phenyl)-2-(2-(4-(N-(2-morpholinoethyl)methylsulfonamido)-1H-indol-1-yl)acetoxy)ethyl)pyridine 1-oxide], the pIC50 was 8.00 to 9.00. The figure for `O=C(CN1C(=O)c2ccc(NO)cc2C1=O)O[C@@H](Cc1c(Cl)c[n+]([O-])cc1Cl)c1ccc(OC(F)F)c(OCC2CC2)c1` [Compound 169, (S)-3,5-dichloro-4-(2-(3-(cyclopropylmethoxy)-4-(difluoromethoxy)phenyl)-2-(2-(5-(hydroxyamino)-1,3-dioxoisoindolin-2-yl)acetoxy)ethyl)pyridine 1-oxide] is more than 9.00; for `CN1CCN(CCN(c2ccc3c(c2)C(=O)N(CC(=O)O[C@@H](Cc2c(Cl)c[n+]([O-])cc2Cl)c2ccc(OC(F)F)c(OCC4CC4)c2)C3=O)S(C)(=O)=O)CC1` [Compound 213, (S)-3,5-Dichloro-4-(2-(3-(cyclopropylmethoxy)-4-(difluoromethoxy)-phenyl)-2-(2-(5-(N-(2-(4-methylpiperazin-1-yl)ethyl)methylsulfonamido)-1,3-dioxoisoindolin-2-yl)acetoxy)ethyl)pyridine 1-oxide] it is more than 9.00.

For `COc1ccc2c(c1)N(CC(=O)O[C@@H](Cc1c(Cl)c[n+]([O-])cc1Cl)c1ccc(OC(F)F)c(OCC3CC3)c1)C(=O)C2=O` [Compound 64, (S)-3,5-dichloro-4-(2-(3-(cyclopropylmethoxy)-4-(difluoromethoxy)phenyl)-2-(2-(6-methoxy-2,3-dioxoindolin-1-yl)acetoxy)ethyl)-pyridine 1-oxide], the pIC50 was more than 9.00. As to `O=C(CN1C(=O)c2cccc(NO)c2C1=O)O[C@@H](Cc1c(Cl)c[n+]([O-])cc1Cl)c1ccc(OC(F)F)c(OCC2CC2)c1` [Compound 170], the pIC50 was more than 9.00. Regarding `CSCCC(C(=O)OC(Cc1c(Cl)c[n+]([O-])cc1Cl)c1ccc(OC(F)F)c(OCC2CC2)c1)N1C(=O)c2ccccc2C1=O` (stereo not shown) [Compound 15], the pIC50 is more than 9.00. The value for `O=C(Cn1ccc2cccnc21)O[C@@H](Cc1c(Cl)c[n+]([O-])cc1Cl)c1ccc(OC(F)F)c(OCC2CC2)c1` [Compound 60] was 8.00 to 9.00.
